The values that follow come from patent publication US4262004A, “2,3-Dihydro-imidazo[2,1-b]benzothiazole compositions to treat depressions” (Janssen Pharmaceutica, N.V., priority 1979, dated 1981).

The target in assay [1] is T1, monoamine oxidase (type A enzyme, tryptamine substrate) (Rattus norvegicus, UniProt P21396).
T1 sequence (P21396 1-526): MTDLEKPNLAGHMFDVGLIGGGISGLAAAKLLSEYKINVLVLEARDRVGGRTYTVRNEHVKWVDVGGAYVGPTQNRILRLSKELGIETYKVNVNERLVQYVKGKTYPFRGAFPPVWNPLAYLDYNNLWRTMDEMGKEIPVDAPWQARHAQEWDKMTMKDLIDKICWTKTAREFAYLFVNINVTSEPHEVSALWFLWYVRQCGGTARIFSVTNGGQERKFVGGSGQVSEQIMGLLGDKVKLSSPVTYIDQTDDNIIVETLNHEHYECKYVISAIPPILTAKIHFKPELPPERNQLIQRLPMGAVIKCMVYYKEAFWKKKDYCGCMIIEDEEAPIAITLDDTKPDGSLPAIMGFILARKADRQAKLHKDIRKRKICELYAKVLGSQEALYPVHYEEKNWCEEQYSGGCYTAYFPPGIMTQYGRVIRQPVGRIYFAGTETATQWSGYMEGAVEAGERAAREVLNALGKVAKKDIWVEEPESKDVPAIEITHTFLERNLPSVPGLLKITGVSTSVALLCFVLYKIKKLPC
Nature of the assay: in-vitro monoamine oxidase inhibition, [14C]tryptamine as substrate. The assay is classed as biochemical. The note with it: Table I; monoamine oxidase extract of Wistar rat tissue, pH 7.4, 37° C., 20 minutes; read-out: I.C.50-value using as substrate [14C]tryptamine.

In assay [2] the target is T2, monoamine oxidase (type B enzyme, β-phenylethylamine substrate) (Rattus norvegicus, UniProt P19643).
T2 sequence (P19643 1-520): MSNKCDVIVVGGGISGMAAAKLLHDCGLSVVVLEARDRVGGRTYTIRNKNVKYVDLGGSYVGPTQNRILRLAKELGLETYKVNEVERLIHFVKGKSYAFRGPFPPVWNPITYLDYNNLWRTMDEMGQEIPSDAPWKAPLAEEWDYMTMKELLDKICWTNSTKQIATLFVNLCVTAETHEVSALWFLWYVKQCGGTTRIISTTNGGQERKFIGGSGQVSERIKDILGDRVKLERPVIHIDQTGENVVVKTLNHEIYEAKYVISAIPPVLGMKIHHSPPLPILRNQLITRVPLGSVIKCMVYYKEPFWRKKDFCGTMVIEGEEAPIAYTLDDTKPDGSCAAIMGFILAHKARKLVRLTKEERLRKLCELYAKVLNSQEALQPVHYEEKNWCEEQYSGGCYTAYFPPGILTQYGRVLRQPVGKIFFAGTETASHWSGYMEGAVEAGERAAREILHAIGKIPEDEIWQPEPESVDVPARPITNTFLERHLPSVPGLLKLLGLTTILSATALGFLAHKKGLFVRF
Nature of the assay: in-vitro monoamine oxidase inhibition, [14C]phenylethylamine hydrochloride as substrate. Format: biochemical. The note with it: monoamine oxidase extract of Wistar rat tissue, pH 7.4, 37° C., 20 minutes.

The mark [3] stands for this setting: Table I, read-out: I.C.50-value using as substrate [14C]phenylethylamine . HCl.

Where a name gives a salt, the structure may show the parent alone. Read-outs that look alike come from different tables or passages of the source.

For `CCNc1cccc2c1SC1=NCCN12` [8-NHC2 H5], the IC50 is 2 nM in assay [1] and 40000 nM in assay [2] (setting [3]).

On to `O=C(c1ccccc1)c1ccc2c(c1)N1CCN=C1S2` [6-COC6 H5, (2,3-dihydroimidazo[2,1-b]benzothiazol-6-yl)phenylmethanone monohydrochloride], for which the IC50 in assay [1] is 220 nM; in assay [2] (setting [3]), 3000 nM.

For the molecule `CCc1ccc2c(c1)N1CCN=C1S2` [6-C2 H5], the IC50 was determined as 140 nM in assay [1] and 10000 nM in assay [2] (setting [3]).

For the molecule `CC(C)Nc1ccc2c(c1)N1CCN=C1S2` [6-NHi . C3 H7, 2,3-dihydro-N-(1-methylethyl)imidazo[2,1-b]benzothiazol-6-amine], the IC50 came out at 18 nM in assay [1] and 34000 nM in assay [2] (setting [3]).

For the molecule `CC(CO)Nc1ccc2c(c1)N1CCN=C1S2` (stereo not shown), the IC50 in assay [1] came out at 130 nM.

Consider `Clc1cccc2c1N1CCN=C1S2` [Example 5-Cl], for which the IC50 in assay [1] is 120 nM; in assay [2] (setting [3]) it was 600 nM.

As to `CCC(CC)Nc1ccc2c(c1)N1CCN=C1S2` [6-NHCH(C2 H5)2], the IC50 in assay [1] came out at 6 nM; in assay [2] (setting [3]) it was 1800 nM.

Take `CCNc1ccc2c(c1)N1CCN=C1S2` [6-NHC2 H5, N-ethyl-2,3-dihydroimidazo[2,1-b]benzothiazol-6-amine]: the IC50 in assay [1] amounted to 18 nM; in assay [2] (setting [3]), 40000 nM.

As to `c1cc2c(cc1C1CCCCC1)SC1=NCCN12` [7-c . C6 H 11], the IC50 in assay [1] worked out at 12 nM; in assay [2] (setting [3]), 65 nM.

In the case of `CCNc1ccc2c(c1)SC1=NCCN12` [7-NHC2 H5], the IC50 in assay [1] was found to be 100 nM; in assay [2] (setting [3]), 45000 nM.

`CCOC(=O)C(=CNc1ccc2c(c1)SC1=NCCN12)C(=O)OCC` [7-NHCHC(COOEt)2, diethyl 2-[(2,3-dihydroimidazo[2,1-b]benzothiazol-7-yl-amino)methylene]propanedioate]: the IC50 in assay [1] was 3400 nM; in assay [2] (setting [3]) it was 30 nM.

`CC(=O)Nc1ccc2c(c1)N1CCN=C1S2` [Example 6-NHCOCH3, N-(2,3-dihydroimidazo[2,1-b]benzothiazol-6-yl)acetamide]: the IC50 in assay [1] worked out at 1800 nM; in assay [2] (setting [3]) it was 85000 nM.

With `CCCCCCN(C=C(C(=O)OCC)C(=O)OCC)c1ccc2c(c1)SC1=[N+](CCCCCC)CCN12`, the IC50 in assay [2] (Table 2, read-out: I.C.50-value using as substrate [14C]phenylethylamine hydrochloride) was found to be 1800 nM.

For `CCCc1ccc2c(c1)SC1=NC(c3ccccc3)CN12` (stereo not shown) [2-C6 H5,7-C3 H7], the results for the IC50 in assay [1] and in assay [2] (setting [3]) were 2500 nM and 6000 nM, respectively.

Turning to `CCCN(C=C(C(=O)OCC)C(=O)OCC)c1ccc2c(c1)SC1=NCCN12` [7-N(C3 H7)CHC(COOEt)2], the IC50 in assay [1] is 220 nM; in assay [2] (setting [3]), 2200 nM.

Consider `c1ccc(Oc2ccc3c(c2)SC2=NCCN23)cc1` [7-OC6 H5], for which the IC50 stood at 450 nM in assay [1] and 95 nM in assay [2] (setting [3]).

As for `COc1cc(CNc2ccc3c(c2)SC2=NCCN23)cc(OC)c1OC` [7-NHCH2 [3,4,5-(OCH3)3C6 H2]], the IC50 in assay [1] is 20000 nM; in assay [2] (setting [3]), 70 nM.

`CCCCCCc1ccc2c(c1)SC1=NCCN12` [7-C6 H13]: the IC50 in assay [1] was determined as 20 nM; in assay [2] (setting [3]), 40 nM.

Turning to `NC(=O)Nc1ccc2c(c1)N1CCN=C1S2` [Example 6-NHCONH2, N-(2,3-dihydroimidazo[2,1-b]benzothiazol-6-yl)urea], the results for the IC50 in assay [1] and in assay [2] (setting [3]) were 1600 nM and 12000 nM, respectively.

As to `Clc1ccc(CNc2ccc3c(c2)N2CCN=C2S3)cc1` [6-NHCH2(4-ClC6 H4)], the IC50 was 26 nM in assay [1] and 70 nM in assay [2] (setting [3]).

Take `Oc1ccc2c(c1)SC1=NCCN12` [Example 7-OH, 2,3-dihydroimidazo[2,1-b]benzothiazol-7-ol monohydrobromide]: the IC50 in assay [1] was determined as 2000 nM.

On to `Cc1cccc2c1N1CCN=C1S2` [Example 5-CH3], for which the IC50 in assay [1] came to 220 nM; in assay [2] (setting [3]), 4000 nM.

With `C#CCNc1ccc2c(c1)SC1=NCCN12`, the results for the IC50 in assay [1] and in assay [2] (setting [3]) were 800 nM and 55000 nM, respectively.

For `COc1ccc2c(c1)SC1=NCCN12` [Example 7-OCH3], the results for the IC50 in assay [1] and in assay [2] (setting [3]) were 280 nM and 14000 nM, respectively.

For `c1c2c(cc3c1SC1=NCCN13)CCC2` [6,7-(CH2)3], the IC50 was 55 nM in assay [1] and 12000 nM in assay [2] (setting [3]).

In the case of `c1ccc2c3c(ccc2c1)SC1=NCCN13` [5,6-(CHCHCHCH)], the IC50 turned out to be 6 nM in assay [1] and 4000 nM in assay [2] (setting [3]).
